Source: PMC8766756, “Insights on Cancer Cell Inhibition, Subcellular Activities, and Kinase Profile of Phenylacetamides Pending 1H-Imidazol-5-One Variants” (Frontiers in Pharmacology, 2022)

Tests used:
Assay in all cases: PamChip tyrosine kinase microarray
Format in all cases: biochemical
Conditions in all cases: 0.1 µM, HL60 lysate
Axl (P30530) = target: T1, Axl (P30530) (Homo sapiens, UniProt P30530)
T1 construct: purchased PamGene (PamChip PTK array, Upstream Kinase Analysis)
T1 sequence (P30530 26-894): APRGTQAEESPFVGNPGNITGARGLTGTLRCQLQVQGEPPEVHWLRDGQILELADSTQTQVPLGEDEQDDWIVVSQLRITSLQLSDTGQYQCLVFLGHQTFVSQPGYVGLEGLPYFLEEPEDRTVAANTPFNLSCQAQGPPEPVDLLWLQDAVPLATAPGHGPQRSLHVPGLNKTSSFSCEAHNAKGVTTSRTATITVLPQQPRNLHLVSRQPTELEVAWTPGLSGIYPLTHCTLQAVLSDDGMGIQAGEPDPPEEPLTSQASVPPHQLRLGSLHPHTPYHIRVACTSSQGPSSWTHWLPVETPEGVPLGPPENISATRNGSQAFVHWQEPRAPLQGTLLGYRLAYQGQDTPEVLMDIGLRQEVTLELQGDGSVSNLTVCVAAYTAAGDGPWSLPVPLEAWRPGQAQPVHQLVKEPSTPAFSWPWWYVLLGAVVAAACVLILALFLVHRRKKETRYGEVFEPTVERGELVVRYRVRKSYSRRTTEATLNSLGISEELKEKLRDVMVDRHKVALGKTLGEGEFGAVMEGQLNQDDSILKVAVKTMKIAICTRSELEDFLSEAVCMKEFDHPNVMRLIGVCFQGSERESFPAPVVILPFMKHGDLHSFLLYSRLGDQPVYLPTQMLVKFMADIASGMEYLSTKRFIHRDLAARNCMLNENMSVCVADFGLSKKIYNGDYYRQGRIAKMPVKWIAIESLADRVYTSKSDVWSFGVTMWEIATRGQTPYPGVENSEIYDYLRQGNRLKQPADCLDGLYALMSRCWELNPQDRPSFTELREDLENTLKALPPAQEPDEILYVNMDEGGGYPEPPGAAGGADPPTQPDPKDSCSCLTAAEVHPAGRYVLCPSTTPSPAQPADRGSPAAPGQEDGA
Description: (§1) The reproducible high potency of KIM-161 on leukemia cell lines was initially speculated to encompass Src tyrosine kinase inhibition. Even so, we also suspected that KIM-161 might be affecting other tyrosine kinases because the HL60 cells are not among the most Src-dependent highly proliferative cells ([Collins, 1987]). Therefore, a profiling of the kinase activities was performed after treatment with KIM-161 using PamChip® tyrosine kinase microarray. This analysis is based on incubation of cell lysate with 3D microarray that projects peptides specific for 143 tyrosine kinases. If a kinase is modified in the cells, it will be detected by phosphorylating its specific peptide in the microarray.
(§2) This test measured the activities of an array of tyrosine kinases of treated HL60 cells compared to the control (untreated cells) after incubation with KIM-161 for 48 h at concentrations of 0.001, 0.01, 0.1, 1.0, 10, and 50 µM. The log fold change (LFC) heat map was initially used to identify significant peptides affected at each concentration (Figure 5).
(§3) An Upstream Kinase Tool was used to generate a putative list of kinases responsible for phosphorylating the phosphosites on the PamChip®. It is an interpretation and is highly dependent on the contents of the underlying phosphorylation databases. Kinase score (Table 2) was used for ranking kinases based on their significance and specificity in terms of the set of peptides used for the corresponding kinase. Kinase statistics indicates the overall change of the peptide set that represents a certain kinase. Kinase statistics value of <0 indicates lower kinase activity in the lysate spiked with the compound and vice versa. Table 2 lists the 20 most changed kinases within treated HL60 cell lysates by 0.1 μM KIM-161.
(§4) Every compound had spiked into a leukemic (AML) cell line HL60 lysate at different concentrations (0.001, 0.01, 0.1, 1, 10, and 50 μM). In addition, DMSO had also spiked at a low concentration (2% v/v) to the HL60 lysate as the control. The samples were profiled on PamGene's tyrosine kinase (PTK) arrays in technical replicates, covering a total of 196 phosphorylation sites. The frozen leukemic HL60 cultured cell pellet was sent to PamGene. At PamGene, the cells were lysed in the presence of the lysis buffer and proteases inhibitor cocktail. The protein concentration was measured using the standard Bradford assay as per the PamGene SOPs. These lysates were further used for generating the PTK activity profiles. For spiking, KIM-161 was received in powder form and dissolved in DMSO at the PamGene facility, followed by storing it at −20°C in small aliquots. PamGene used its in-house bioinformatics toolbox in combination with other methods to generate the hypotheses of signaling pathways.

HER4 (Q15303) = target: T2, HER4 (Q15303) (Homo sapiens, UniProt Q15303)
T2 construct: purchased PamGene (PamChip PTK array, Upstream Kinase Analysis)
Description: as §1, §2, §3, §4

CSK (P41240) = target: T3, CSK (P41240) (Homo sapiens, UniProt P41240)
T3 construct: purchased PamGene (PamChip PTK array, Upstream Kinase Analysis)
Description: as §1, §2, §3, §4

EphA7 (Q15375) = target: T4, EphA7 (Q15375) (Homo sapiens, UniProt Q15375)
T4 construct: purchased PamGene (PamChip PTK array, Upstream Kinase Analysis)
Description: as §1, §2, §3, §4

TRKB (Q16620) = target: T5, TRKB (Q16620) (Homo sapiens, UniProt Q16620)
T5 construct: purchased PamGene (PamChip PTK array, Upstream Kinase Analysis)
Description: as §1, §2, §3, §4

TRKC (Q16288) = target: T6, TRKC (Q16288) (Homo sapiens, UniProt Q16288)
T6 construct: purchased PamGene (PamChip PTK array, Upstream Kinase Analysis)
Description: as §1, §2, §3, §4

EGFR (P00533) = target: T7, EGFR (P00533) (Homo sapiens, UniProt P00533)
T7 construct: purchased PamGene (PamChip PTK array, Upstream Kinase Analysis)
Description: as §1, §2, §3, §4

T5 sequence (Q16620 32-822): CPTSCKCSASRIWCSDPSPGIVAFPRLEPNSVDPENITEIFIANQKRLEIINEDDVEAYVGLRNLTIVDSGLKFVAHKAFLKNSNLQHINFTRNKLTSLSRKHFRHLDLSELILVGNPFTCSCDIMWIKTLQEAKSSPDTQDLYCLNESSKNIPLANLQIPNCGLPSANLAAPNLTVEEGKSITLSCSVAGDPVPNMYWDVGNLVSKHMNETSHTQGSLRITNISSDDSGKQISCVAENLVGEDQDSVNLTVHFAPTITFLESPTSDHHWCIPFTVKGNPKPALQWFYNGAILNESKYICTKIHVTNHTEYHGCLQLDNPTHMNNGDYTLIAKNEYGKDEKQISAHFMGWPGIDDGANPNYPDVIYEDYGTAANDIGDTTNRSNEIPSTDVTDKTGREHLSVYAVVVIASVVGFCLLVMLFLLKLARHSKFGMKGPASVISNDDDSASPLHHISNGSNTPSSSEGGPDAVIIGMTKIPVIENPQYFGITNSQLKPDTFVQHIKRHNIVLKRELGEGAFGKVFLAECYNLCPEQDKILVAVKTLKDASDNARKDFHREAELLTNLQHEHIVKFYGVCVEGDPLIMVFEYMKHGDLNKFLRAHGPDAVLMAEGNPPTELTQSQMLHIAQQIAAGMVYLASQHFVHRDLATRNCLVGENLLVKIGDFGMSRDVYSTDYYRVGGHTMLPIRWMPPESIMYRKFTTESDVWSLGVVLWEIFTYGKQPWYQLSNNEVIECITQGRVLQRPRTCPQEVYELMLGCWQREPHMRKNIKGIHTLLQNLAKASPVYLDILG
T6 sequence (Q16288 32-839): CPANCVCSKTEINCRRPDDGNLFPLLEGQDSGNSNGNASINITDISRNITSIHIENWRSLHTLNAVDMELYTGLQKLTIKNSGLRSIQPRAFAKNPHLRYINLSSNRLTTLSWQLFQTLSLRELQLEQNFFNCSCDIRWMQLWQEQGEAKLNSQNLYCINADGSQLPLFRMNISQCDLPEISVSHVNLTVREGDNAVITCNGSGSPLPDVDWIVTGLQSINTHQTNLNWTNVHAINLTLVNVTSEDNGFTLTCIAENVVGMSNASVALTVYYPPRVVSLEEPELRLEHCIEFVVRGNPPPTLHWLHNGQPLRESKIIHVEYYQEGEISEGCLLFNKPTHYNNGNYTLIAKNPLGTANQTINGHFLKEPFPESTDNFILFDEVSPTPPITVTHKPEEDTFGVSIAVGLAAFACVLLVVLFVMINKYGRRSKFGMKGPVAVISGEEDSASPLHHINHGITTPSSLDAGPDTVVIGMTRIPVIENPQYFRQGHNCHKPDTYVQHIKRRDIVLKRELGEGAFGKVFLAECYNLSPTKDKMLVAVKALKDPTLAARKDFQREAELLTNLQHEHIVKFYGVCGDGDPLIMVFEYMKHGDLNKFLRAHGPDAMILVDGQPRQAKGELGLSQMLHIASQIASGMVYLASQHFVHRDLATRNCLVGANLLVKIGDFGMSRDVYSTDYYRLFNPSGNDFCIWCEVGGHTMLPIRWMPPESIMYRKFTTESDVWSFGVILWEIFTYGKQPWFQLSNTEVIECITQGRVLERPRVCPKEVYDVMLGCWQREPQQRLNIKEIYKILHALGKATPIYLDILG
T4 sequence (Q15375 28-998): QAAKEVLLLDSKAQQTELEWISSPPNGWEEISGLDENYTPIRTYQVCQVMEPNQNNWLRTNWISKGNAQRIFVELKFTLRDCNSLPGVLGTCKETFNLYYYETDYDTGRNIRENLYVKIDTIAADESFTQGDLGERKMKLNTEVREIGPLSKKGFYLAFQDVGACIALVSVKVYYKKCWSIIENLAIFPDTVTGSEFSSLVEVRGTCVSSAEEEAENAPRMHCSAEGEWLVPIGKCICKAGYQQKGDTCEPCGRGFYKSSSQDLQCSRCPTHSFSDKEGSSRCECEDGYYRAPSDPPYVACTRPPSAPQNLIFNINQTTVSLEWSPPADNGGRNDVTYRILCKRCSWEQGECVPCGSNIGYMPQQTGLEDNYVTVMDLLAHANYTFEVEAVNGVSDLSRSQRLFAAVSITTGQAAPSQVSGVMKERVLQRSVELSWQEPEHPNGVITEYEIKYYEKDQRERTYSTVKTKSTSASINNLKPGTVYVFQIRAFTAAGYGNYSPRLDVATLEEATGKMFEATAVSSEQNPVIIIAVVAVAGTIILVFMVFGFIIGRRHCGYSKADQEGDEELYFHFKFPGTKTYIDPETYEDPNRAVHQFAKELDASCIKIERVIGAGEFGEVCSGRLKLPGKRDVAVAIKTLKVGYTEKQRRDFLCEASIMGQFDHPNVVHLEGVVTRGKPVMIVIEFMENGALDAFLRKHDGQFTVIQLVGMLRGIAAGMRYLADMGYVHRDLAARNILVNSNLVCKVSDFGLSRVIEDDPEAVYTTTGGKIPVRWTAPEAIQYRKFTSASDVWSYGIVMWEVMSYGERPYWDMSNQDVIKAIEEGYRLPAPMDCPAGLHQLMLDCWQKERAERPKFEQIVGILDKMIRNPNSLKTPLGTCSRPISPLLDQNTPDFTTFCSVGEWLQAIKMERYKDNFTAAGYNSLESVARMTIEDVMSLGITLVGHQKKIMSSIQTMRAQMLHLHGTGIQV
T3 sequence (P41240 whole entry): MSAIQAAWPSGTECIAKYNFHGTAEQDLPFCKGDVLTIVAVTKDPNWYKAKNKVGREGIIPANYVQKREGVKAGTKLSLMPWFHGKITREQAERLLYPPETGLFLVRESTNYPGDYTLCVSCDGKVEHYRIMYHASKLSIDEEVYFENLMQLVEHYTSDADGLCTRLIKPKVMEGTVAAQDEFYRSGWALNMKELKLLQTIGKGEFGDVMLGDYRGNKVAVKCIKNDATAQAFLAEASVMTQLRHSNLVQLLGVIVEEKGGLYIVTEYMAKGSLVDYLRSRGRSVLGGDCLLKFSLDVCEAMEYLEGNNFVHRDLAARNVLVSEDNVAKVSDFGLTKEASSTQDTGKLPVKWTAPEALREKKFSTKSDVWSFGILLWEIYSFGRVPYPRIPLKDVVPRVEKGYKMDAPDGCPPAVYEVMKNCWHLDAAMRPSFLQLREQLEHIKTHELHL
T7 sequence (P00533 25-1210): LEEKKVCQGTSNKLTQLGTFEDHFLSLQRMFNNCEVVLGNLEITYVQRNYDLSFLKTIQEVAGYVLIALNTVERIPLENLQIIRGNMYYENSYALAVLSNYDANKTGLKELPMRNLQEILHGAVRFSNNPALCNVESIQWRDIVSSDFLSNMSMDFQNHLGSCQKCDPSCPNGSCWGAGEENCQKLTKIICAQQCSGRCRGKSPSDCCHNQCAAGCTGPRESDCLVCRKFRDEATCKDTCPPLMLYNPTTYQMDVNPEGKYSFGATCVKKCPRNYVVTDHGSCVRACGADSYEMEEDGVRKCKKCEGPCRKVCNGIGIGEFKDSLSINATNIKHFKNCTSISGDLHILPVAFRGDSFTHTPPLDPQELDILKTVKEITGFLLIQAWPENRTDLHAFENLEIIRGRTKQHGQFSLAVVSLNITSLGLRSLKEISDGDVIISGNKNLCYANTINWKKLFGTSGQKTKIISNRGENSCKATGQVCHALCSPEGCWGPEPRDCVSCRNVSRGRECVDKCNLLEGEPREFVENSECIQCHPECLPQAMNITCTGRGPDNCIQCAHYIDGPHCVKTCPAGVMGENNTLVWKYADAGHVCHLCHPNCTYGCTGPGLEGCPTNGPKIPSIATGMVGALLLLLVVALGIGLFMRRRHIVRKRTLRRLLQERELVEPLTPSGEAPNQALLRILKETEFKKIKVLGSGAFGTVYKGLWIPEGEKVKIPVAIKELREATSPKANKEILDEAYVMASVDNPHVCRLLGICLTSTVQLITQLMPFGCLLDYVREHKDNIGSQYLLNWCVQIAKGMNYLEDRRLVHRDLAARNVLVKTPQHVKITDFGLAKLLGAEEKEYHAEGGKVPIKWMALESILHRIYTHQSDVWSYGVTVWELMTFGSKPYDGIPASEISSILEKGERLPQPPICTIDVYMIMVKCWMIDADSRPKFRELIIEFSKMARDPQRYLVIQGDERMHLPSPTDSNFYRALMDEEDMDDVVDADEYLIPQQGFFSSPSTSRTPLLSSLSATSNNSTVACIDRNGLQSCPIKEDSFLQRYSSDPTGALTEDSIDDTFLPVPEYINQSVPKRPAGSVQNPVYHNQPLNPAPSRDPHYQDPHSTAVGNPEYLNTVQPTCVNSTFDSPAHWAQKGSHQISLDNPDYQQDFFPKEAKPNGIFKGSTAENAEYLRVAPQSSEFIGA

COc1ccc(/C=C2\N=C(C)N(c3ccc(CC(=O)NCc4ccccc4)cc3)C2=O)cc1 [Compound 4c, (Z)-N-Benzyl-2-(4-(4-(4-methoxybenzylidene)-2-methyl-5-oxo-4,5-dihydro-1H-imidazol-1-yl)phenyl)acetamide]
Mean Final score (Kinase score) (Axl (P30530)): 2.569 | Mean Kinase Statistic (Axl (P30530)): -1.219 | Mean Significance Score (Axl (P30530)): 2.048 | Mean Specificity Score (Axl (P30530)): 0.5684 | Mean Final score (Kinase score) (HER4 (Q15303)): 2.227 | Mean Kinase Statistic (HER4 (Q15303)): -1.109 | Mean Significance Score (HER4 (Q15303)): 2.048 | Mean Specificity Score (HER4 (Q15303)): 0.2042 | Mean Significance Score (CSK (P41240)): 2.048 | Mean Specificity Score (CSK (P41240)): 1.0649 | Mean Final score (Kinase score) (CSK (P41240); listed as KIM-161): 3.09 | Mean Final score (Kinase score) (EphA7 (Q15375)): 0.8806 | Mean Kinase Statistic (EphA7 (Q15375)): -0.6736 | Mean Significance Score (EphA7 (Q15375)): 0.8204 | Mean Specificity Score (EphA7 (Q15375)): 0.0595 | Mean Final score (Kinase score) (TRKB (Q16620)): 2.487 | Mean Kinase Statistic (TRKB (Q16620)): -1.25 | Mean Significance Score (TRKB (Q16620)): 2.048 | Mean Specificity Score (TRKB (Q16620)): 0.5169 | Mean Final score (Kinase score) (TRKC (Q16288)): 2.207 | Mean Kinase Statistic (TRKC (Q16288)): -1.079 | Mean Significance Score (TRKC (Q16288)): 2.048 | Mean Specificity Score (TRKC (Q16288)): 0.1464 | Mean Final score (Kinase score) (EGFR (P00533)): 2.116 | Mean Kinase Statistic (EGFR (P00533)): -1.053 | Mean Significance Score (EGFR (P00533)): 2.048 | Mean Specificity Score (EGFR (P00533)): 0.03887
